Values joined by “and” are separate entries in the source; they are usually repeats but may differ in a detail not shown here. Equal entries are not always repeated. Structures can show the parent of a compound that is named as a salt.
How the values were obtained:
ferritin [1] = target: T1, ferritin (Aquarana catesbeiana, UniProt P07229); assay: Subdomain unfolding of ferritin by circular dichroism (helix/coil transition); design: species or system bullfrog
T1 construct: made in house; host or cells: E. coli BL21-DE3-PLysS, vector pET-9a
T1 sequence (P07229 2-176): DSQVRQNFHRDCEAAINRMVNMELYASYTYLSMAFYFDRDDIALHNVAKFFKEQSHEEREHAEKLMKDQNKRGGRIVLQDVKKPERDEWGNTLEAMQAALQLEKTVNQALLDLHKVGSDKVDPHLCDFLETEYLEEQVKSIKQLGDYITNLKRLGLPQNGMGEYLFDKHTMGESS
Description: The effects of protein unfolding agents on subdomain unfolding of ferritin were monitored as changes in the Circular Dichroism (CD) spectra. Both wild type ferritin (H-WT) and the open pore mutant H-L134P were analyzed. Solutions of mineralized protein (2.08×10^−1 μM in 10 mM MOPS buffer, pH 7.0), were incubated with or without 1 mM urea overnight as described herein, and equilibrated for 10 minutes at the selected temperature before recording spectra between 300 nm to 200 nm. CD spectra recorded on a Pi-180 spectrophotometer (Applied Photophysics, Surrey, UK) over the temperature range of 5° C. to 65° C. Spectra were recorded in a cuvette with a 1 cm path length at protein concentrations of 2×10^−7 M, except for H-L134P, the protein with fully open pores in protein crystals, where the concentration was 4×10^−7 M to compensate for the lower signal at higher temperatures. Contributions of the solvent to the protein spectra were subtracted. Molar ellipticities at 220 nm were determined from the optical rotation, and the percent alpha helix content was calculated as described by Frére et al (Frere, V., Sourgen, F., Monnot, M., Troalen, F. & Fermandjian, S. (1995) J Biol Chem 270, 17502-17507) and Zhong and Johnson (Zhong, L. & Johnson, W. C. J. (1992) Proc Natl Acad Sci USA 89, 4462-4465). Curves were fit to the data using Sigmaplot 8.0. Fits and data matched with P<0.001. Data presented for H-L 134P ferritin are representative of two sets of measurements on one preparation and the data for the H-wild type protein, with and without urea, are representative of 3 independent protein preparations.

ferritin [2] = target: T1, ferritin; assay: Iron release from mineralized recombinant ferritin monitored as formation of Fe(II)-bipyridyl (A522 nm), NADH/FMN reductant; assay type: biochemical; details: for increase in the initial rate of iron release: in combination with the chelator 2,2′-bipyridine
Description: Briefly, as described in further detail below, recombinant ferritin was expressed, isolated, and mineralized. The mineralized, recombinant ferritin was incubated with a protein unfolding reagent (e.g., urea, guanidine, or Triton X-100). Chelator and reductant was then added to the reaction, and rates of iron release were monitored by UV absorbance detection of formation of Fe(II)-bipyridyl (A522 nm/sec).
Production of recombinant ferritin. Recombinant ferritin was expressed using bullfrog sequences as the kinetic properties have been particularly favorable for study (Takagi H., et al. (1998) J. Biol. Chem. 273:18685)(18)(19)(20). Crystallographic studies of frog and human ferritins (Trikha, J., Theil, E. C. & Allewell, N. M. (1995) J Mol Biol 248, 949-67)(Hempstead, P. D., Yewdall, S. J., Fernie, A. R., Lawson, D. M., Artymiuk, P. J., Rice, D. W., Ford, G. C., & Harrison, P. M. (1997) J. Mol. Biol. 268, 424-448) show very similar structures and mechanisms (Bou-Abdallah, F., Papaefthymiou, G. C., Scheswohl, D. M., Stanga, S. D., Arosio, P. & Chasteen, N. D. (2002) Biochem J. 364, 57-63)(Hwang, J., Krebs, C., Huynh, B. H., Edmondson, D. E., Theil, E. C. & Penner-Hahn, J. E. (2000) Science 287, 122-125)(18). […] Two proteins were compared in the study: H-wild type and H-L134P, an “open” pore protein for which the crystal structure is known (Takagi H., et al. (1998) J. Biol. Chem. 273:18685). Sequences coding H-wild type and H-L134P ferritin were inserted into the vector pET-9a and expressed in E. coli BL21-DE3-PLysS (Stratagene®). The recombinant proteins were isolated as the 24-subunit assembly without Fe (<0.5/subunit) using methods previously described (20).
Mineralization of ferritin. Recombinant ferritin was mineralized by adding a freshly prepared, acidic solution of FeSO4 (to minimize oxidation and hydrolysis) to apoferritin in buffer and incubating at room temperature for 1 hour and then overnight at 4° C., to complete hydrolysis of ferric mineral precursors (18). The final solution was 2.08 μM protein with 480 Fe/protein ([…]) in 0.1 M MOPS, 0.1M NaCl, pH=7. Sterile solutions of mineralized ferritin are stable for months to years.
Measurement of iron release rates. Rates of Fe exit from ferritin (rates of dissolving the Fe biomineral) were monitored as formation of Fe(II)-bipyridyl (A522 nm/sec). The reaction was started by mixing an equal volume of mineralized ferritin with an equal volume of a solution of a NADH (5 mM), FMN (5 mM), and bipyridyl (5 mM) as first described by Jones and Walsh (21). The initial rates of iron chelation were calculated by taking the linear ascending part of the multiphasic reaction curve, averaged from 3 independent assays/protein preparations and 2-3 independent protein preparations.
Triton X-100 and Urea. One set of reactions was treated with Triton X-100 at final concentrations of 0.1%, 1.0% or 10% (volume/volume). A second set of reactions was treated with urea at final concentrations of 1 mM, 10 mM, or 1M. A third set of reactions was treated with a control solution containing only buffer. All three sets of ferritin solutions were incubated further for 17-20 hours (i.e., overnight) at 4° C., then returned to room temperature. Iron release was initiated by the addition of 2.5 mM bipyridine, 2.5 mM NADH, and 2.5 mM FMN (final concentrations). The amount of iron released from ferritin was monitored at room temperature, over a period of one hour, by appearance of absorbance at 522 nm due to formation of the Fe(II)-bipyridyl complex.
Urea, Guanidine HCl, and Triton X-100. The effects on iron release from ferritin of urea, guanidine hydrochloride, and Triton X-100 were studied by mixing solutions of the mineralized protein with a protein unfolding reagent and incubating at room temperature for 1 hour, followed by incubating overnight at 4° C. before adding reductant and chelator. […]

ferritin [3] = target: T1, ferritin; assay: Fe uptake and mineralization / Fe(II) oxidation at the ferroxidase site (A650); assay type: biochemical, bullfrog
Description: The temperature of the helix coil/transition in the pore was lower in both H-L134P protein and the wild type protein +1 mM urea (FIG. 3B) and is in the physiological range. […] However, the stability of the partially unfolded H-L 134P protein was lower, and loss of helix continued between 45° C. and 65° C. […] Rates were 1.9±0.1×10^−3, 2.93±0.1×10^−3 and 4.68±0.06×10^−3 mmoles/second for H-WT ferritin+1 mM urea, H-L134P ferritin and Wild Type H ferritin+1M urea, respectively (FIGS. 2A, B). The local nature of the helix/coil transition induced by 1 mM urea observed between 35° C. and 50° C. (FIG. 3B), is emphasized by the small effects on other ferritin functions such as Fe uptake and mineralization where the rates were 0.67±0.01 and 0.57±0.01 ΔA650s^−1 for zero and 10 mM urea, respectively, for 480 Fe/protein.

HeLa cells = assay: Cell viability by trypan blue exclusion test
Description: HeLa cells, cultured in DMEM medium with 10% FBS, were incubated with the protein unfolding agents for 24 hours at 37° C. in 12-well plates. Cells were treated with trypsin, fresh medium was added and the cells were suspended in the fresh DMEM medium with 10% FBS. Cell suspensions were mixed 1:4 with trypan blue in 0.85% NaCl (weight/volume), incubated 5 minutes at room temperature, then examined by light microscopy in a hemocytometer chamber. Blue cells are scored as non-viable. For each condition, 1-3 analyses were performed.

ferritin [4] = target: T1, ferritin; assay: Iron release from ferritin with Desferal substituted for bipyridyl, Fe(III)-Desferal complex monitored at 430 nm; assay type: biochemical; details: H-Wild Type ferritin, in the absence of urea
Source text: Desferal® (desferrioxamine mesylate or DFO), a chelator of Fe(III), is currently the drug of choice to remove Fe from patients with excess tissue iron accumulated from monthly transfusions to treat betaglobin gene mutations (Sickle Cell Disease and Beta Thalassemia). Positive selection has made the mutations relatively common (<10%) in areas of the world where malaria is endemic. […] In order to determine if unfolding ferritin pores increased Desferal® chelation of ferritin Fe, the chelator was substituted for bipyridyl in the mixture of NADH/FMN usually used. Formation of the Fe(III)— Desferal® complex was monitored at 430 nm, the absorbance maximum under the conditions used.

ferritin [5] = details: Crichton et al. 1980; cited from earlier work
[6] = 1.0 mM to 1 M urea or guanidine
[7] = 1M NaCl, MOPS buffer (data not shown)

Compound: NC(N)=O [urea]
- downshift of a helix/coil transition (ferritin [1]; [6]): 10 °C
- helix/coil transition temperature after downshift (ferritin [1]; [6]): 43 °C
- Tm (midpoint) of decrease in helix structure (ferritin [1]; WT ferritin, 1 mM urea): 41 °C
- helix loss (ferritin [1]; WT ferritin, 1 mM urea): ~10%
- increase of transition temperature in the absence of urea versus 1 mM urea (ferritin [1]; wild type ferritin): 12 °C
- time for removal of >95% of the Fe (ferritin [2]; 1 mM urea): 33 min
- time for removal of >95% of the Fe (ferritin [2]; 10 mM urea): 13 min
- increase over the initial rate without urea (ferritin [2]; 1 M urea): 4.81 fold
- time for removal of >95% of the Fe (ferritin [2]; 1 M urea): 4 min
- initial rate of Fe(II) bipyridyl formation (ferritin [2]; 2 M urea): 1.02±0.11×10^−3 mmoles/second
- time for removal of >95% of the Fe (ferritin [2]; 2 M urea): 20 min
- initial rate of Fe(II) bipyridyl formation (ferritin [2]; H-WT ferritin, 1 mM urea): 1.90±0.11×10^−3 mmole/second and 1.9±0.1×10^−3 mmole/second
- initial rate of Fe(II) bipyridyl formation (ferritin [2]; H-WT ferritin, 1 M urea): 4.68±0.06×10^−3 mmoles/second
- decrease in the time to release 50% of the total iron in ferritin (ferritin [2]; chelator 2,2′-bipyridine, absorbance at 522 nm=0.4): 10 fold
- increase in the initial rate of iron release (ferritin [2]): 2-4 fold
- most effective concentrations (ferritin [2]; urea, enhancement of iron release): 1 to 1000 mM
- Fe(II)-bipyridyl formation in the absence of FMN/NADH (ferritin [2]; urea-treated protein, no reductant): No Fe(II)-bipyridyl formed
- rate of Fe uptake and mineralization (ferritin [3]; 10 mM urea, 480 Fe/protein): 0.57±0.01 ΔA650s^−1
- Fe(II) oxidation, a measure of Fe(II) entry and binding to the ferroxidase site (ferritin [3]; urea-treated ferritin): slightly inhibited

Compound: Triton X-100
- most effective concentration (ferritin [2]; Triton X-100, enhancement of iron release): 1.0-10 % (volume/volume)
- effect on ferritin iron release (formation rate of Fe(II)-bipyridyl) (ferritin [2]; Triton X-100 at 1% and 10%): comparable to the effect of 1 and 10 mM urea
- increase in the initial rate of iron release (ferritin [2]): 2-3 fold
- toxicity to cells (HeLa cells; 1.0% and 10% (data not shown)): toxic

Compound: CC(=O)N(O)CCCCCNC(=O)CCC(=O)N(O)CCCCCNC(=O)CCC(=O)N(O)CCCCCN [Desferal®, desferrioxamine mesylate]
- Fe that could be chelated (ferritin [4]): 10%
- Fe removal from ferritin in solution (ferritin [5]): removes little Fe

Compound: Cl.N=C(N)N [guanidine, guanidine hydrochloride]
- effect on formation rate of Fe(II)-bipyridyl (ferritin [2]; Gd.HCl at 0.1 mM): increased rates significantly
- effect on ferritin iron release (formation rate of Fe(II)-bipyridyl) (ferritin [2]; Gd.HCl at 1 and 10 mM): comparable to the effect of 1 and 10 mM urea
- Average % nonviable cells (HeLa cells; 1 mM, 24 hours at 37° C.): 6%
- cell viability versus cells in normal medium (HeLa cells; indicated concentrations (1 mM)): No significant difference

Compound: [Cl-].[Na+] [NaCl, Sodium chloride, reference compound]
- initial rate of Fe(II)-bipyridyl formation (ferritin [2]; [7]): decreased
- total amount of Fe chelated (ferritin [2]; [7]): decreased
